Experimental findings from patent publication US7090863B2, “Hypocholesterolemic composition and methods of use” (Inpharma S.A., priority 2001, dated 2006) are described below.

The subject of this experiment is normocholesterolemic healthy male subjects. Briefly: Example 1 first phase: plasma lipoprotein variations after 15 days of soy bean proteins, β-sitosterol or their combination. In kind it is in vivo, human. Conditions: in rapport to post-seven days of stabilisation diet values. The source says:
For the first phase, 18 normocholesterolemic healthy male subjects (mean age: 32.5±8 years) have been enrolled. All subjects followed a stabilisation diet period of seven days during which they received some advises concerning their nourishment (according to the American Heart Association recommends), without any radical modification of their diet customs. A dietician monitored the patient dietary pattern trough the “Seven days questionnaire” for all the experimental duration. Patients were imposed to stop any nutritional supplementation. After this period, all subjects ingested for fifteen days 400 mg β-sitosterol two times/day (6 subjects), 1600 mg soy bean proteins two times/day (6 subjects) or a low dosage product containing soy proteins supplemented in β-sitosterol in a rapport 4:1 (offered and patented by Inpharma SA, Lugano, Switzerland), 2 g two times/day (6 subjects).
The hematochemistry measurements have been carried out on venous blood coming from antecubital harm vein, after 12 fasting hours after the stabilisation diet period and at the end. Blood has been collected into tubes […] heparin or other anticoagulant, plasma was immediately separated by high-speed centrifugation at 3500×g for twenty minutes. TC, HDL-C, TG, Glucose, and Uric acid have been determined with standardised enzymatic […] methods (Gaddi et al., 2001). LDL-C plasma level has been estimated with the Friedewald's formula [LDL-C=TC-(TG/5+HDL-C)], for TG<350 mg/dL.
Data have been sampled in a specific database and analysed with the help of the SPSS 8.0 statistical software. A normality Shapiro-Wilks test has been carried out on all the tested variables, followed by ANOVA and two-tails t-test for paired samples, when possible, and by a post-hoc Tukey's test. Percentages have been compared with the Fisher's exact test. Correlation degree between baseline plasma lipid levels and reduction obtained with the treatment were estimated with a Pearson's bivariate correlation test followed by linear regression. For all tests a “p” level less than 0.05 has been considered as significant.

The structures appear in SMILES notation.

For the compound `CC[C@H](CC[C@@H](C)[C@H]1CC[C@H]2[C@@H]3CC=C4C[C@@H](O)CC[C@]4(C)[C@H]3CC[C@]12C)C(C)C` [β-sitosterol], the “Apolipoprotein Al variation” value is on record as −0.1%, the “Apolipoprotein B variation” value is given as −0.3%, the “High Density Lipoproteins variation” value is given as “+0.3%” and the “Low Density Lipoproteins variation” value is reported as −4.9%. For the same compound, the “Total Cholesterol variation” value is on record as −3.2%, the Tryglycerides variation is on record as −0.1% and the “Very Low Density Lipoproteins variation” value is reported as −0.2%.
